Read-outs that look alike come from different tables or passages of the source.
Columns and labels:
Type in all cases: binding
hNET transporter = biological target: T1, hNET transporter (Homo sapiens, UniProt P23975); experiment: Human norepinephrine transporter (hNET) scintillation proximity assay, competition with [3H]-Nisoxetine
T1 construct: expressed in transfected cells; membranes prepared
Procedure: This assay was used to determine the affinity of ligands for the hNET transporter by competition with [^3H]-Nisoxetine. As in the hSERT assay of the above example, receptor-containing membranes were pre-coupled to the SPA beads and the binding of the appropriate radioligand to the transporter was measured. The light emission was proportional to the amount of bound radioligand, with unbound radioligand producing no signal.
HEK-293 cells (Tatsumi et al., Eur. J. Pharmacol. 1997, 30, 249-258) stably expressing recombinant hNET (Clone: HEK-hNET #2) were maintained with media (DMEM hi glucose with 10% FBS, 300 μg/ml G418 and 2 mM L-Glutamine) and incubated at 37° C. with 5% CO2. Cells were released from culture flasks using PBS for 1-2 minutes. The cells were subsequently centrifuged at 1000 g's for 5 minutes and resuspended in PBS prior to being used in the membrane preparation.
(§1) Cell membranes were prepared using a membrane preparation buffer of 50 mM TRIS (pH 7.4). Cell membranes were prepared from a single cube (7.5×10^9cells total). Cells were homogenized using a Polytron (setting medium for a 4 second burst). The homogenate was then centrifuged at 48,000×g for 15 minutes, the supernatant subsequently removed and discarded, and the pellet resuspended with fresh buffer. After a second centrifugation, the pellet was re-homogenized and brought to a final volume determined during the assay. Typically, membrane portions were aliquoted in 3-6 mg/mil (w:v). and stored at −80° C.
^3[H] […] Compounds of the invention were diluted from 10 mM to 0.1 nM FAC (10 point curves, whole log /half log dilutions) via a Beckman Biomek 2000 using a serial dilution protocol. The test compounds were then transferred (20 μl/well) and the radioligand was added at 50 μl/well. Membrane and beads were prepared to a ratio of 10 μg: 0.7 mg, with 0.7 mg PVT-WGA Amersham beads (Cat# RPQ0282V) added per well. 130 μl of the membrane: bead mixture was added to the assay plate. The mixtures were allowed to stand at room temperature for one hour, and were then counted on a Packard TopCount LCS, a generic SPA counting protocol settings (Energy Range: Low, Efficiency Mode: Normal, Region A: 1.50-35.00, Region B: 1.50-256.00, Count Time (min.): 0.40, Background Subtract: none, Half-Life Correction: no, Quench Indicator: tSIS, Platemap blank subtraction: No, Cross talk reduction: Off).
The % inhibition was calculated for each compound tested [(Compound CPM at maximum concentration-Non-Specific CPM)/Total CPM*100]. The concentration producing 50% inhibition (IC50) was determined using an iterative non-linear curve fitting technique with Activity Base/Xlfit using the following equation:
(§2) where max=total binding, min=non specific binding, x=concentration (M) of the tested compound and n=Hill slope. The inhibition dissociation constant (Ki) of each compound was determined according to the method of Cheng-Prusoff and then converted into negative logarithm (pKi) of the Ki.

hDAT = biological target: T2, hDAT (Homo sapiens, UniProt Q01959); experiment: Human dopamine transporter scintillation proximity assay, competition with [3H]-Vanoxerine
T2 construct: expressed in transfected cells; plated whole cells
T2 sequence (Q01959 whole entry): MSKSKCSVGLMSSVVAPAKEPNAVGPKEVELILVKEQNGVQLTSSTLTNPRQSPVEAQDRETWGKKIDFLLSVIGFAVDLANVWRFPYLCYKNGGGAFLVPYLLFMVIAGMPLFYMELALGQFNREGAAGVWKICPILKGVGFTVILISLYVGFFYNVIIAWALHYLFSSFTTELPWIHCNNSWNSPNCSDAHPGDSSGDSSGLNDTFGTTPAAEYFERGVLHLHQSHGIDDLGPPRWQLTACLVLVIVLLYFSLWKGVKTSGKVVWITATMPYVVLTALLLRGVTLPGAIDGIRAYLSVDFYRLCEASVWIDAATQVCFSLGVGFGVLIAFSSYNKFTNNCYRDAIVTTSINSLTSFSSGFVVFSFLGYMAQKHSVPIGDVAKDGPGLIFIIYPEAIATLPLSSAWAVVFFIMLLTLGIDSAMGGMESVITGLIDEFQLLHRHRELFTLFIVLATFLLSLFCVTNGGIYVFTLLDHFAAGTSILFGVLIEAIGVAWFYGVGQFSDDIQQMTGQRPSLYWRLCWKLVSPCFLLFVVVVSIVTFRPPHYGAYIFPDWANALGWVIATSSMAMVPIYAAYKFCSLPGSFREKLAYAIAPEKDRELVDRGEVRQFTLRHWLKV
Procedure: This assay was used to determine the affinity of ligands for the dopamine transporter by competition with [^3H]-Vanoxerine.
Cells were plated four hours prior to experiment by placing approximately 30,000 cells per well (in PBS) on white, opaque Cell-Tak coated 96 well plates. Extra buffer was apriated from the cell plates using an ELx405 plate washer.
Compounds of the invention were diluted from 10 mM to 0.1 nM FAC (10 point curves, whole log/half log dilutions) via a Beckman Biomek 2000 using a 10-point dilution protocol. The mixtures were allowed to stand at room temperature for 30 minutes, and were then counted on a Packard TopCount LCS, a generic SPA counting protocol settings, Count Time (min.): 0.40, Background Subtract: none, Half-Life Correction: none, Quench Indicator: tSIS, Platemap blank subtraction: none, Cross talk reduction: Off).
The % inhibition was calculated for each compound tested [(Compound CPM at maximum concentration-Non-Specific CPM)/Total CPM*100].
as §2

hSERT transporter = biological target: T3, hSERT transporter (Homo sapiens, UniProt P31645); experiment: Human serotonin transporter (hSERT) scintillation proximity assay, competition with [3H]-Citalopram
T3 construct: expressed in transfected cells; membranes prepared
T3 sequence (P31645 whole entry): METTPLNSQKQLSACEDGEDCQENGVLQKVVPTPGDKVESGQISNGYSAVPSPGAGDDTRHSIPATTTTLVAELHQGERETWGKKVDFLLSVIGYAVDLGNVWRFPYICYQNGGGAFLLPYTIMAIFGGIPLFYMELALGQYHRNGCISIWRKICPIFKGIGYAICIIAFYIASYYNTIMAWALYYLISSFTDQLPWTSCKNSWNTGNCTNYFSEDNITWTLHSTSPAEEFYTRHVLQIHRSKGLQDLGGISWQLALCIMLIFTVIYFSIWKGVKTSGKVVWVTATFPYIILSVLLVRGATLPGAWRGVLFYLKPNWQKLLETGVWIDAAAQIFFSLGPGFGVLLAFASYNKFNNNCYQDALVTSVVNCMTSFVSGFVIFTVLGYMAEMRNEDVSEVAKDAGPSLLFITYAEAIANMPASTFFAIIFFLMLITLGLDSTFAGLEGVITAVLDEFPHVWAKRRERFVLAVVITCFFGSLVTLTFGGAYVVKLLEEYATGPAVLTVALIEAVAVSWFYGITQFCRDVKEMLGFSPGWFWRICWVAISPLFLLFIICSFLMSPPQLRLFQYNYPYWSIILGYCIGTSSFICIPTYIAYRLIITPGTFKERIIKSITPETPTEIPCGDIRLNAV
From the text: Screening for Human Serotonin Transporter (hSERT) Antagonists Using a Scintillation Proximity Assay (SPA)
The screening assay of this example was used to determine the affinity of ligands at the hSERT transporter by competition with [^3H]-Citalopram.
Scintillation Proximity Assay (SPA) works by bringing radioligand within close proximity to the bead's scintillant to stimulate light emission. In this assay, the receptor-containing membranes were pre-coupled to the SPA beads and the binding of the appropriate radioligand to the transporter was measured. The light emission was proportional to the amount of bound radioligand. Unbound radioligand produced no signal as a result of distant proximity to scintillant (lack of energy transfer).
Cells are released from culture flasks using PBS for 1-2 minutes. The cells were subsequently centrifuged at 1000 g's for 5 minutes and resuspended in PBS prior to being used in the membrane preparation.
as §1, with “(7.5×10^9 cells” for “(7.5×10^9cells”, “3 mg/ml” for “3-6 mg/mil”
Compounds of the invention were diluted from 10 mM to 0.1 nM FAC (10 point curves, whole log/half log dilutions) via a Beckman Biomek 2000 using a serial dilution protocol. The test compounds were then transferred (20 μl/well) and the [^3H]-Citalopram radioligand was added at 50 μl/well. Membrane and beads were prepared to a ratio of 10 μg: 0.7 mg, with 0.7 mg PVT-WGA Amersham beads (Cat# RPQ0282V) added per well. 130 μl of the membrane: bead mixture was added to the assay plate.
The % inhibition was calculated for each compound tested [(Compound counts per minute (CPM) at maximum concentration-Non-Specific CPM)/Total CPM*100].
as §2

[1] = Table 1, read-out: pIC50 NET (converted)
[2] = Table 1, read-out: pIC50 DAT (converted)
[3] = Table 1, read-out: pIC50 SERT (converted)

T1 sequence (P23975 whole entry): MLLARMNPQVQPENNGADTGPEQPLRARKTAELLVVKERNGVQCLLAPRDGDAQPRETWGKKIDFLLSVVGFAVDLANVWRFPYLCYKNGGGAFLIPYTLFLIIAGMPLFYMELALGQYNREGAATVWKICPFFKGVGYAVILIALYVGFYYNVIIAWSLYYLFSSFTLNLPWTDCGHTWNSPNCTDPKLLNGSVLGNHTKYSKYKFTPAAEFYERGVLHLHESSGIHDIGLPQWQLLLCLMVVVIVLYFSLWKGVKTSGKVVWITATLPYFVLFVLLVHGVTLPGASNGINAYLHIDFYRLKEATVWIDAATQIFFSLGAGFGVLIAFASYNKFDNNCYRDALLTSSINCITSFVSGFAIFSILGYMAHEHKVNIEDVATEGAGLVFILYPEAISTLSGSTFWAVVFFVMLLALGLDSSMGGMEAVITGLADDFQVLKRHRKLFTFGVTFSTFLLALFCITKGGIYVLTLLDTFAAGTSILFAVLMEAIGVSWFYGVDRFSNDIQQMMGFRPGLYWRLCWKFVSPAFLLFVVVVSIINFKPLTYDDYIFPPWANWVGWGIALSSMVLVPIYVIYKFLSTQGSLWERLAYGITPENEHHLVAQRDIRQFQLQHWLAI

SMILES | IC50 (hNET transporter; [1]) | IC50 (hDAT) | IC50 (hSERT transporter) | IC50 (hDAT; [2]) | IC50 (hSERT transporter; [3]) | IC50 (hNET transporter)
O=C(c1ccc(Cl)c(Cl)c1)C1(CC2CCCO2)CCNCC1 (stereo not drawn) [Compound 42, (3,4-Dichloro-phenyl)-[4-(tetrahydro-furan-2-ylmethyl)-piperidin-4-yl]-methanone] | 47.9 nM | 3.63 nM | 1 nM |  |  | 
O=C(c1ccccc1)C1(Cc2ccc(Cl)c(Cl)c2)CCNCC1 [Compound 43, [4-(3,4-Dichloro-benzyl)-piperidin-4-yl]-phenyl-methanone] | 1510 nM |  | 75.9 nM | 575 nM |  | 
CNc1ccc(C(=O)C2(CC(C)C)CCNCC2)cc1Cl [Compound 44, (3-Chloro-4-methylamino-phenyl)-(4-isobutyl-piperidin-4-yl)-methanone] | 51.3 nM | 57.5 nM | 0.724 nM |  |  | 
CC(C)CC1(C(=O)c2ccc(Cl)c(Oc3ccccc3)c2)CCNCC1 [Compound 45, (4-Chloro-3-phenoxy-phenyl)-(4-isobutyl-piperidin-4-yl)-methanone] | 2.57 nM |  |  | 34.7 nM | 2.4 nM | 
CCCC1(C(=O)c2ccc(Cl)c(Oc3ccccc3)c2)CCNCC1 [Compound 46, (4-Chloro-3-phenoxy-phenyl)-(4-propyl-piperidin-4-yl)-methanone] | 11.5 nM |  |  | 30.2 nM | 7.08 nM | 
CC(C)C[C@@]1(C(=O)c2ccc(Cl)c(Cl)c2)CC[C@@H]2CC[C@H]1N2 [Compound 47, (3,4-Dichloro-phenyl)-((1R,2S,5R)-2-isobutyl-8-aza-bicyclo[3.2.1]oct-2-yl)-methanone] | 200 nM | 24 nM | 7.94 nM |  |  | 
CC[C@@]1(C(=O)c2ccc(Cl)c(Cl)c2)CC[C@@H]2CC[C@H]1N2 [Compound 48, (3,4-Dichloro-phenyl)-((1R,2R,5R)-2-ethyl-8-aza-bicyclo[3.2.1]oct-2-yl)-methanone] | 1150 nM | 209 nM | 7.76 nM |  |  | 
CC[C@]1(C(=O)c2ccc(Cl)c(Cl)c2)CC[C@@H]2CC[C@H]1N2 [Compound 49, (3,4-Dichloro-phenyl)-((1R,2S,5R)-2-ethyl-8-aza-bicyclo[3.2.1]oct-2-yl)-methanone] | 5130 nM | 1580 nM | 631 nM |  |  | 
CCCC1(C(=O)c2ccc(Cl)c(-c3ccn[nH]3)c2)CCCNC1 (stereo not drawn) [Compound 50, [4-Chloro-3-(2H-pyrazol-3-yl)-phenyl]-(3-propyl-piperidin-3-yl)-methanone] |  |  | 7.76 nM | 4270 nM |  | 30.9 nM
CCCC1(C(=O)c2ccc(Cl)c(N(C)c3ccccc3)c2)CCNCC1 [Compound 51, [4-Chloro-3-(methyl-phenyl-amino)-phenyl]-(4-propyl-piperidin-4-yl)-methanone] | 162 nM |  |  | 195 nM | 18.6 nM | 
CC(C)(C)CCC1(C(=O)c2ccc(Cl)c(Cl)c2)CCCNC1 (stereo not drawn) [Compound 56, (3,4-Dichloro-phenyl)-[3-(3,3-dimethyl-butyl)-piperidin-3-yl]-methanone] | 32.4 nM | 15.1 nM | 17.4 nM |  |  | 
CC(C)(C)CC[C@]1(C(=O)c2ccc(Cl)c(Cl)c2)CCCNC1 [Compound 59, (3,4-Dichloro-phenyl)-[(S)-3-(3,3-dimethyl-butyl)-piperidin-3-yl]-methanone] |  |  | 14.5 nM | 324 nM |  | 10.5 nM

From patent US20090318493A1 (Roche Palo Alto LLC, priority 2008, published 2009)
